The results in this text go back to US9586901B2, “Lactams” (UNILEVER PLC, priority 2006, dated 2017).

The subject of one data set is LasR. Briefly: LasR assay (unstable gfp fused to the elastase promoter). It is filed as cell-based. The following applies: Pseudomonas aeruginosa, read-out: LasR (conc). The procedure:
Compounds of the present invention were also assayed using a LasR assay. The LasR assay provides a measurement of quorum sensing inhibition activity. The higher the percentage inhibition. […] In the LasR assay, an unstable gfp has been fused to the elastase promoter, so that the amount of Gfp is regulated by the QS system. The plasmid is put into Pseudomonas aeruginosa which makes its own AHL signals. The assay is performed by adding the compounds to be tested to the system at the beginning of the experiment, at different concentrations. Gfp expression is measured at different times during growth, ending at the 24 h time point. The percentage fluorescence was determined at the time point when the fluorescence reached its maximum in the control, usually around 11-12 h after inoculation.

Another data set deals with V. fischeri luxRI system. Briefly: N-acylated homoserine lactone (AHL) quorum sensing assay, GFP reporter strain. The format is cell-based, E. coli. The following applies: for ID40 at 3 nM OHHL: Table 4, number in parentheses, unit not given, amount of compound lowering relative activity to 40%. The method, then: Compounds of the present invention were compared to compounds of the prior art in order using an AHL-quorum sensing assay which utilises a reporter strain that expresses Green Fluorescent Protein (GFP) in the presence of AHL signals. The assay is performed by measuring GFP output in the presence of the compound to be measured and comparing the output to a control. By using multiple samples at varying concentrations of compound and AHL, an inhibition index of compound activity can be generated. The inhibition index used in the present example is the relative amount of compound required to reduce GFP expression to 40% of the control. The inhibition index is termed AIC40. Lower values of AIC40 represent better inhibitors of the AHL quorum sensing system.
The reporter strain of bacterium used in this assay is E. coli into which the V. fischeri luxRI system has been engineered. A gfp gene is fused to the QS controlled luxI promoter as is described in (Andersen et al., 2001, and Andersen et al, 1998).
Measurement of AIC40 (ID40 at 3 nM OHHL)
Determination of the activity of compounds using the E. coli based luxRI construct was performed as follows.
In a 15 mL plastic tube, mix 3 mL of o.n. culture of the lux reporter strain with 12 mL fresh medium, incubate at 37° C. Label six tubes, 10, 20, two 50 and two 100. To each of the tubes, add OHHL (3-oxohexanoyl homoserine lactone) to a final concentration of 10, 20, 50, or 100 nM respectively in the AB medium (add enough medium to distribute across the appropriate number of wells). To the first row of the microplate (row A), add 200 ul of the OHHL/AB mixture. To the remaining rows (B-H) add 100 ul of the OHHL/AB mixture. To the first row (A) add compounds to be tested to the 200 ul mixture of OHHL/AB. Make a dilution series in the first 7 rows by transferring 100 μL from wells in row 1 to wells in row 2 and so on. Discard the remaining 100 μL from row 7. Add 100 μL diluted lux monitor to each well. Incubate the plate 2 hours at 37° C. and measure green fluorescence using the “Victor” plate reader.
Calculate ID40 for each column. To do this, calculate the relative activity in each well. […] Make a plot for each concentration of OHHL vs. the range of compound concentrations used. Calculate the amount of compound needed to lower the relative activity to 40%, this is termed inhibiting dose 40%, ID40. For each compound an inhibition index, AIC40, is found as follows: plot ID40 against its respective AHL concentration; AIC40 is the slope of the best straight line through the plotted points and origin.
The methodology for this assay is set out in 2(a) above.

In data set [1] the test system is Staphylococcus epidermidis. Description: S. epidermidis growth inhibition (OD600 growth curves). It is filed as cell-based. The following applies: concentration of compound that significantly alters growth rate or final growth yield. The procedure: The growth inhibition of Staphylococcus epidermidis by the compounds of the present invention was determined by growing S. epidermidis in 96 well microtitre plates in Trypticase Soy Broth plus 0.5% glucose in a Wallac Victor2 microplate reader. Each compound was added to the wells at different concentrations and a no-compound control and a set of blank wells were also used. The OD600 was measured hourly.

The subject of the next data set is Murine L929 cells. Description: Cytotoxicity study, L929 cell number after 48 hour culture. The format is cell-based. As to conditions: for Mean (cell number): L929, 48 hour; for % Inhibition: cell number vs non-challenged cultures. The procedure:
Murine L929 cells are established at low density and, during the testing period, grow to confluency in plastic petri dishes. 24 hours after the dishes are inoculated, the medium on the test dishes is aspirated and replaced with a medium containing the compound to be tested. The cell monolayer is then cultured for a further 48 hour period. At the end of the test period, cells are harvested from the dishes and their numbers assessed and compared with unperturbed cultures. Differences in cell numbers are expressed as a percentage inhibition in comparison to non-challenged cultures.

Setting [2] is: Table 4 comparative results, first number of the cell, lower = better.
The mark [3] stands for this setting: inhibition index: slope of ID40 against AHL concentration, lower = better inhibitor, NE = no effect.
Setting [4] is: 40 μg/ml, 30% = cytotoxic potential.

The structures appear in SMILES notation.

Take `C=C1C(c2ccccc2)=CC(=O)N1C`: in the data set on LasR, the inhibition at 50 µg/mL amounted to 40%. Further, the “ID40 at 3 nM OHHL” value in the data set on V. fischeri luxRI system worked out at 163.26. Moreover, the AIC40 in the data set with V. fischeri luxRI system (setting [2]) and in the data set with V. fischeri luxRI system (setting [3]) was 52.76 in each case.

As to `C=C1NC(=O)C=C1Cc1ccccc1`, in the data set with LasR, the inhibition at 50 µg/mL turned out to be 61%. Also, the “ID40 at 3 nM OHHL” value with V. fischeri luxRI system is recorded as 239.79. The AIC40 in the data set on V. fischeri luxRI system (setting [2]) and in the data set with V. fischeri luxRI system (setting [3]) was 69.45 throughout.

The term minimal effective concentration denotes the smallest amount tested that counted as effective. Turning to `C=C1NC(=O)C=C1c1ccc(C(F)(F)F)cc1`, in data set [1], the minimal effective concentration stood at 1 µg/mL. Moreover, the inhibition at 25 µg/mL in the data set on LasR was 54%. In the data set on V. fischeri luxRI system (setting [3]), this compound yielded an AIC40 of 1.

Take `C=C1NC(=O)C=C1c1cccc(C(F)(F)F)c1`: the minimal effective concentration in data set [1] turned out to be 0.5 µg/mL. Further, in the data set on LasR, the inhibition at 25 µg/mL turned out to be 40%. The compound also showed an AIC40 with V. fischeri luxRI system (setting [3]) of 4.6.

Turning to `C=C1NC(=O)C=C1c1cccc(F)c1`, the minimal effective concentration in data set [1] stood at 0.5 µg/mL. In addition, the inhibition at 25 µg/mL in the data set with LasR was determined as 70%. The compound further returned an AIC40 with V. fischeri luxRI system (setting [3]) of 1.3.

Regarding `CC1(O)NC(=O)C=C1c1ccc(F)cc1` (stereo not shown), the minimal effective concentration in data set [1] is 100 µg/mL. For the same compound, the inhibition at 100 µg/mL with LasR came out at 28%.

In turn, `CC1(O)NC(=O)C=C1c1cccc(F)c1` (stereo not shown) yielded a minimal effective concentration in data set [1] greater than 100 µg/mL.

Compound `COc1cccc(C2=CC(=O)NC2(C)O)c1` (stereo not shown) showed a minimal effective concentration in data set [1] greater than 50 µg/mL.

Compound `COc1ccccc1C1=CC(=O)NC1(C)O` (stereo not shown) showed a minimal effective concentration in data set [1] greater than 50 µg/mL. For the same compound, in the data set with LasR, the inhibition at 100 µg/mL amounted to 41%.

On to `CC1(O)NC(=O)C=C1Cc1ccccc1` (stereo not shown), for which the minimal effective concentration in data set [1] was greater than 100 µg/mL.

As usually defined, the % Inhibition is the share of the control response that was lost under treatment. For the compound `CC(C)CN1C(=O)C(c2ccccc2)=CC1=C(Br)Br` [Compound 223], the “Mean (cell number)” value in the data set on Murine L929 cells (10 μg/ml) turned out to be 3.31E+05; with Murine L929 cells (20 μg/ml) it was 2.94E+05; in the data set on Murine L929 cells (40 μg/ml, E+05 = ×10^5), 2.07E+05. Besides, the entries for the “% Inhibition” value with Murine L929 cells (10 μg/ml), in the data set on Murine L929 cells (20 μg/ml) and with Murine L929 cells (setting [4]) were 24.1%, 32.5% and 52.4%, respectively.

Consider `CC(C)CN1C(=O)C=C(c2ccccc2)C1=C(Br)Br` [Compound 226], for which the “Mean (cell number)” value worked out at 3.41E+05 in the data set on Murine L929 cells (5 μg/ml); 2.14E+05 in the data set with Murine L929 cells (10 μg/ml); 2.42E+05 in the data set with Murine L929 cells (20 μg/ml); 1.67E+05 in the data set with Murine L929 cells (40 μg/ml, E+05 = ×10^5). Besides, the “% Inhibition” value with Murine L929 cells (5 μg/ml) is on record as 21.8%; in the data set on Murine L929 cells (10 μg/ml), 50.9%; in the data set with Murine L929 cells (20 μg/ml) it was 44.4%; with Murine L929 cells (setting [4]), 61.6%.

In the case of `C=C1NC(=O)C=C1c1ccc(F)cc1` [Compound 257], the AIC40 result in the data set with V. fischeri luxRI system (setting [2]) is “significantly better AIC40 values than compounds 198 and 205”.

As to `C=C1NC(=O)C=C1c1ccc(OC)cc1` [Compound 294], the AIC40 result with V. fischeri luxRI system (setting [2]) is “significantly better AIC40 values than compounds 198 and 205”.

With `C=C1NC(=O)C=C1c1ccc(Br)cc1` [Compound 295], the AIC40 result with V. fischeri luxRI system (setting [2]) is “significantly better AIC40 values than compounds 198 and 205”.

For `CCO` [Ethanol], the “Mean (cell number)” value with Murine L929 cells (4% Ethanol) is 3.40E+05; in the data set with Murine L929 cells (5% Ethanol), 3.09E+05; with Murine L929 cells (7.5% Ethanol), 7.63E+04. Besides, the “% Inhibition” value in the data set with Murine L929 cells (4% Ethanol) turned out to be 30.7%; in the data set on Murine L929 cells (5% Ethanol), 36.9%; in the data set with Murine L929 cells (7.5% Ethanol) it was 84.5%.

`O=C1C=C(Br)/C(=C/Br)N1Cc1ccccc1` [reference compound] yielded an AIC40 in the data set on V. fischeri luxRI system (setting [2]) of 27.

In turn, `CCCC(O)C1=C(Br)/C(=C/Br)N(c2ccccc2)C1=O` (stereo not shown) [reference compound] showed an AIC40 in the data set with V. fischeri luxRI system (setting [2]) of 99.
